# Laboratory results reported in US7547709B2, “Chain-breaking antioxidants” (Vanderbilt University, priority 2004, dated 2009).
# Read-outs that look alike come from different tables or passages of the source. Marks after values point to notes of the source that are not given here.
# Tests used:
# [1] = for O—H BDE, absolute measured value (±2 SD): EPR equilibration; for O—H BDE, absolute measured value (±2 SD) / Experimental substituent effect on O—H BDE, 5-pyrimidinols (vi): solution phase; for O—H BDE: O—H bond dissociation enthalpy: Table A; for Experimental substituent effect on O—H BDE, 5-pyrimidinols (vi): 298 K, relative to unsubstituted (vi)
# [2] = for k/alkyl: second order rate constant for reaction with alkyl radicals: Table A
# [3] = Reaction with peroxyl radicals, oxygen consumption in inhibited autoxidation of styrene; assay type: physicochemical; conditions: for Rate constants with peroxyl radicals, pyrimidinol versus phenolic counterpart: (vi)/(iv) pair; for k/peroxyl: second order rate constant for reaction with peroxyl radicals: Table A; for Rate constant for reaction with peroxyl radicals: benzene, 323 K
# [4] = open atmosphere
# [5] = Burton et al. 1985; cited from earlier work
# [6] = solution phase, 298 K, from ref 2C, cited from earlier work; for Experimental substituent effect on O—H BDE, phenols (iv): relative to unsubstituted (iv)
# [7] = benzene, 298 K, reported in ref 12, cited from earlier work
# [8] = parameters: key: Not an air-stable compound; conditions: Table 2, column (iv); cited from earlier work
compound,measurement,setting,value
"Oc1cncnc1 [Example 1, 5-Pyrimidinol]",O—H BDE: O—H bond dissociation enthalpy (estimate),[1]; Estimate based upon other results to date for other 5-pyrimidinols,91.3^a
same,k/alkyl: second order rate constant for reaction with alkyl radicals,[2],3.6 × 10^6
"Cc1nc(C)c(O)c(C)n1 [Example 2, 2,4,6-Trimethyl-5-pyrimidinol]","Rate constants with peroxyl radicals, pyrimidinol versus phenolic counterpart",[3],≤ 3
same,k/peroxyl: second order rate constant for reaction with peroxyl radicals,[3],3.3 ± 0.4 × 10^4
same,Rate constant for reaction with peroxyl radicals,[3],3.3 ± 0.4 × 10^4 M^−1 s^−1
same,"O—H BDE, absolute measured value (±2 SD)",[1],85.2 ± 0.5 kcal/mol
same,O—H BDE: O—H bond dissociation enthalpy,[1],85.2
same,"Experimental substituent effect on O—H BDE, 5-pyrimidinols (vi)",[1],-5.9 kcal/mol
same,k/alkyl: second order rate constant for reaction with alkyl radicals,[2],4.6 × 10^5
same,Rate constant for reaction with alkyl radicals (estimate),"[2]; benzene, 298 K, neophyl clock (N), estimate from correlations of k and β for CH3CN, EtOAc, t-BuOH","4.6 × 10^5 (N)^c,d M^−1 s^−1"
same,"Deuterium kinetic isotope effect (kH/kD), alkyl radicals",[2]; dry solvents containing D2O,3.1
"Cc1nc(C(C)(C)C)c(O)c(C(C)(C)C)n1 [Example 3, 2-Methyl-4,6-di-tert-butyl-5-pyrimidinol]","Rate constants with peroxyl radicals, pyrimidinol versus phenolic counterpart",[3],roughly the same
same,k/peroxyl: second order rate constant for reaction with peroxyl radicals,[3],2.2 ± 0.3 × 10^4
same,Rate constant for reaction with peroxyl radicals,[3],2.2 ± 0.3 × 10^4 M^−1 s^−1
same,"O—H BDE, absolute measured value (±2 SD)",[1],84.10 ± 0.25 kcal/mol
same,O—H BDE: O—H bond dissociation enthalpy,[1],84.1
same,"Experimental substituent effect on O—H BDE, 5-pyrimidinols (vi)",[1],-7.0 kcal/mol
same,k/alkyl: second order rate constant for reaction with alkyl radicals,[2],3.2 ± 0.5 × 10^4
same,Rate constant for reaction with alkyl radicals,"[2]; benzene, 298 K, neophyl radical clock (N)",3.2 ± 0.5 × 10^4 (N) M^−1 s^−1
"COc1nc(C)c(O)c(C)n1 [Example 4, 2-Methoxy-4,6-dimethyl-5-pyrimidinol]",O—H BDE: O—H bond dissociation enthalpy,[1],82.5
"Cc1nc(N(C)C)nc(C)c1O [Example 5, 2-N,N-Dimethylamino-4,6-dimethyl-5-pyrimidinol]",k/peroxyl: second order rate constant for reaction with peroxyl radicals,[3],8.6 ± 0.5 × 10^6
same,Rate constant for reaction with peroxyl radicals,[3],8.6 ± 0.5 × 10^6f M^−1 s^−1
same,"Deuterium kinetic isotope effect (kH/kD), peroxyl radicals",[3]; dry solvents containing D2O,3.1
same,"O—H BDE, absolute measured value (±2 SD)",[1],78.16 ± 0.25 kcal/mol
same,O—H BDE: O—H bond dissociation enthalpy,[1],78.2
same,"O—H BDE difference versus a-TOH, experiment",[1]; relative to a-TOH,-0.1 kcal/mol
same,"Experimental substituent effect on O—H BDE, 5-pyrimidinols (vi)",[1],-12.9 kcal/mol
same,k/alkyl: second order rate constant for reaction with alkyl radicals,[2],2.9 ± 1.1 × 10^6
same,Rate constant for reaction with alkyl radicals,"[2]; benzene, 298 K, 5-hexenyl radical clock (H)",2.9 ± 1.1 × 10^6 (H) M^−1 s^−1
same,Rate of reaction with alkyl radicals relative to α-TOH,[2]; versus α-TOH,5 times
same,"Stability to air oxidation, in words",[4],without degradation by air oxidation
CCN1CCCc2c(C)c(O)c(C)c(C)c21 [Formula 3b],"Reactivity with peroxyl radicals compared to tocopherol, in words",[5],react slowly with peroxyl radicals
"Oc1ccccc1 [iv, phenol]","O—H BDE of unsubstituted phenol, absolute value",[6],(88.3) kcal/mol
Cc1cc(C)c(O)c(C)c1 [iv-b],"Experimental substituent effect on O—H BDE, phenols (iv)",[6],-5.6 kcal/mol
same,Rate constant for reaction with peroxyl radicals,[3],1.1 ± 0.1 × 10^5 M^−1 s^−1
same,Rate constant for reaction with alkyl radicals,[7]; neophyl clock (N),8.5 ± 0.2 × 10^4 (N)^e M^−1 s^−1
Cc1cc(C(C)(C)C)c(O)c(C(C)(C)C)c1 [iv-c],"Experimental substituent effect on O—H BDE, phenols (iv)",[6],-7.3 kcal/mol
same,Rate constant for reaction with peroxyl radicals,[3],1.8 ± 0.3 × 10^4 M^−1 s^−1
same,Rate constant for reaction with alkyl radicals,[7]; neophyl clock (N),4.8 ± 1.5 × 10^3 (N)^e M^−1 s^−1
Cc1cc(N(C)C)cc(C)c1O [iv-d],"Air stability, footnote letter in place of O—H BDE",[8],d
α-tocopherol [a-TOH (1)],"Experimental substituent effect on O—H BDE, phenols (iv)",[6],−10.0^c kcal/mol
same,Rate constant for reaction with peroxyl radicals,[3],4.1 ± 0.4 × 10^6 M^−1 s^−1
same,Rate constant for reaction with alkyl radicals,[7]; 5-hexenyl clock (H),6.0 ± 1.5 × 10^5 (H)^e M^−1 s^−1
